From paper PMC10776879, “In vitro screening of topical formulation excipients for epithelial toxicity in cancerous and non-cancerous cell lines” (EXCLI Journal, 2023)

Experiments:
[1] = Table 1, physicochemical information of the excipients, source not given; cited from earlier work
[2] = system: human cell lines (WM164, WM1366, D24, HaCaT, FB); test: MTT and CV cytotoxicity, statements over all tested cell lines; format: cell-based
Description: (§1) Cells were seeded into the 96-well cell culture plates in 100 μl of complete culture medium at the initial density of 2x10^4 (cells/ml). Cells were incubated under 5 % CO2 at 37 °C for 24 hours for adhering to the wells and medium was then replaced with 100 μl of fresh medium containing excipient solution at the required final concentration. Each concentration was tested in minimum of 5 replicates and control cells were exposed to the culture medium only.
(§2) After cell incubation for 24 h, the excipient-containing medium was removed, and 100 μl of MTT in PBS (5 mg/ml) diluted 1:10 in medium was then added in the dark. Plates were further incubated for 2-3 h, after which time the medium was removed and the purple formazan product was dissolved by adding 200 μl of DMSO to each well. Plates were then placed in a shaker for 5 min at room temperature and the absorbance of the resulting solutions was measured at 570 nm using a microplate reader (Multiskan™ FC Microplate Photometer). The effect of each treatment was calculated as the percentage of tetrazolium salt reduction by viable cells against the negative control (cells treated with culture medium only).
(§3) Fixed cells were stained with crystal violet dye solution to screen cell viability under treatment conditions. Cells are fixed by 4 % (v/v) paraformaldehyde in PBS for 10 minutes. Crystal violet assay of 0.05 % (v/v) is prepared by 1:4 dilution of the crystal violet stock solution (v/v) in 4 % (v/v) paraformaldehyde. The fixed cells were washed twice with PBS and covered with 250 µl crystal violet working solution. The plates were placed on a bench rocker with medium frequency (20 oscillations per minute) at room temperature for 20 minutes. The plates were emptied and washed under indirect stream of tap water for three times and inverted on filter paper. The plates were taped gently on the paper to remove any remaining liquid and air dried with no lid for minimum of 2 hr at room temperature. After the plates were photographed, blue dye was dissolved in DMSO and the optical density of each well was measured at 570 nm (OD570) with a plate reader (Multiskan™ FC Microplate Photometer). The effect of each treatment was calculated as the percentage of crystal viable staining of surviving attached cells, against the negative control (cells treated with culture medium only).
(§4) To assess the excipients' cytotoxicity, the dose-response effect of each excipient was measured against the cell lines. The cytotoxicity value for each concentration of the excipients was expressed as percentage of viability against the untreated control wells (the optical density of untreated cells was set at 100 % viability) to construct dose-response curves.
The cytotoxicity of the excipients was expressed in terms of an IC50 values (concentration causing 50 % death of the cell population) (Goldberg and Frazier, 1989[37]). […] All IC50 values were expressed as µg/ml. The percentage viability was calculated as follows: […]

[3] = system: D24 human melanoma cells; test: MTT cell viability assay; format: cell-based; conditions: 24 h exposure
Description: as §1, §2, §4
(§5) All IC50 values were expressed as µg/ml. The percentage viability was calculated as follows: […]

[4] = system: WM1366 human melanoma cells; test: MTT cell viability assay; format: cell-based; conditions: 24 h exposure
Description: as §1, §2, §4, §5

[5] = system: HaCaT human keratinocytes; test: MTT cell viability assay; format: cell-based; conditions: 24 h exposure
Description: as §1, §2, §4, §5

[6] = system: WM164 human melanoma cells; test: MTT cell viability assay; format: cell-based; conditions: 24 h exposure
Description: as §1, §2, §4, §5

[7] = system: human leukemic cells (CCRF); parameters: method as in Duncan et al., 1994[25]; conditions: ref Duncan et al., 1994[25]; cited from earlier work
[8] = system: D24 human melanoma cells; test: Crystal violet (CV) cell viability assay; format: cell-based; conditions: 24 h exposure
Description: as §3, with “Cells were seeded into the 96-well cell culture plates in 100 μl of complete culture medium at the initial density of 2x10^4 (cells/ml). Cells were incubated under 5 % CO2 at 37 °C for 24 hours for adhering to the wells and medium was then replaced with 100 μl of fresh medium containing excipient solution at the required final concentration. Each concentration was tested in minimum of 5 replicates and control cells were exposed to the culture medium only. Fixed” for “Fixed”, “only). To assess the excipients' cytotoxicity, the dose-response effect of each excipient was measured against the cell lines. The cytotoxicity value for each concentration of the excipients was expressed as percentage of viability against the untreated control wells (the optical density of untreated cells was set at 100 % viability) to construct dose-response curves. […] All IC50 values were expressed as µg/ml. The percentage viability was calculated as follows: […]” for “only).”

[9] = system: WM1366 human melanoma cells; test: Crystal violet (CV) cell viability assay; format: cell-based; conditions: 24 h exposure
Description: as §3, with “Cells were seeded into the 96-well cell culture plates in 100 μl of complete culture medium at the initial density of 2x10^4 (cells/ml). Cells were incubated under 5 % CO2 at 37 °C for 24 hours for adhering to the wells and medium was then replaced with 100 μl of fresh medium containing excipient solution at the required final concentration. Each concentration was tested in minimum of 5 replicates and control cells were exposed to the culture medium only. Fixed” for “Fixed”, “only). To assess the excipients' cytotoxicity, the dose-response effect of each excipient was measured against the cell lines. The cytotoxicity value for each concentration of the excipients was expressed as percentage of viability against the untreated control wells (the optical density of untreated cells was set at 100 % viability) to construct dose-response curves. […] All IC50 values were expressed as µg/ml. The percentage viability was calculated as follows: […]” for “only).”

[10] = system: HaCaT human keratinocytes; test: Crystal violet (CV) cell viability assay; format: cell-based; conditions: 24 h exposure
Description: as §3, with “Cells were seeded into the 96-well cell culture plates in 100 μl of complete culture medium at the initial density of 2x10^4 (cells/ml). Cells were incubated under 5 % CO2 at 37 °C for 24 hours for adhering to the wells and medium was then replaced with 100 μl of fresh medium containing excipient solution at the required final concentration. Each concentration was tested in minimum of 5 replicates and control cells were exposed to the culture medium only. Fixed” for “Fixed”, “only). To assess the excipients' cytotoxicity, the dose-response effect of each excipient was measured against the cell lines. The cytotoxicity value for each concentration of the excipients was expressed as percentage of viability against the untreated control wells (the optical density of untreated cells was set at 100 % viability) to construct dose-response curves. […] All IC50 values were expressed as µg/ml. The percentage viability was calculated as follows: […]” for “only).”

[11] = system: WM164 human melanoma cells; test: Crystal violet (CV) cell viability assay; format: cell-based; conditions: 24 h exposure
Description: as §3, with “Cells were seeded into the 96-well cell culture plates in 100 μl of complete culture medium at the initial density of 2x10^4 (cells/ml). Cells were incubated under 5 % CO2 at 37 °C for 24 hours for adhering to the wells and medium was then replaced with 100 μl of fresh medium containing excipient solution at the required final concentration. Each concentration was tested in minimum of 5 replicates and control cells were exposed to the culture medium only. Fixed” for “Fixed”, “only). To assess the excipients' cytotoxicity, the dose-response effect of each excipient was measured against the cell lines. The cytotoxicity value for each concentration of the excipients was expressed as percentage of viability against the untreated control wells (the optical density of untreated cells was set at 100 % viability) to construct dose-response curves. […] All IC50 values were expressed as µg/ml. The percentage viability was calculated as follows: […]” for “only).”

[12] = system: primary skin fibroblasts (FB); test: MTT cell viability assay; format: cell-based, human; conditions: 24 h exposure
Description: as §1, §2, §4, §5

[13] = system: primary skin fibroblasts (FB); test: Crystal violet (CV) cell viability assay; format: cell-based, human; conditions: 24 h exposure
Description: as §3, with “Cells were seeded into the 96-well cell culture plates in 100 μl of complete culture medium at the initial density of 2x10^4 (cells/ml). Cells were incubated under 5 % CO2 at 37 °C for 24 hours for adhering to the wells and medium was then replaced with 100 μl of fresh medium containing excipient solution at the required final concentration. Each concentration was tested in minimum of 5 replicates and control cells were exposed to the culture medium only. Fixed” for “Fixed”, “only). To assess the excipients' cytotoxicity, the dose-response effect of each excipient was measured against the cell lines. The cytotoxicity value for each concentration of the excipients was expressed as percentage of viability against the untreated control wells (the optical density of untreated cells was set at 100 % viability) to construct dose-response curves. […] All IC50 values were expressed as µg/ml. The percentage viability was calculated as follows: […]” for “only).”

Triton X-100 [reference compound]
HLB [1]: 13.5 | Concentration causing significant inhibition of cell growth ([2]; all cell lines): 0.004 µg/mL | IC50 ([2]; over the tested cell lines, this study): < 0.08 µg/mL | Irritancy ranking ([2]; rank by MTT and CV IC50 over all cell lines, 1 = most cytotoxic): 1 | IC50 (μg/ml) [Mean, Range] D24, MTT [3]: 0.0429 (0.04 to 0.05) μg/ml | IC50 (μg/ml) [Mean, Range] WM1366, MTT [4]: 0.083 µg/mL | IC50 (μg/ml) [Mean, Range] HaCaT, MTT [5]: 0.0417 (0.04 to 0.043) μg/ml | IC50 (μg/ml) [Mean, Range] WM164, MTT [6]: 0.0042 (0.002 to 0.01) μg/ml | IC50, MTT assay [7]: 1 µg/mL | IC50 (μg/ml) [Mean, Range] D24, CV [8]: 0.043 (0.04 to 0.045) μg/ml | IC50 (μg/ml) [Mean, Range] WM1366, CV [9]: 0.089 µg/mL | IC50 (μg/ml) [Mean, Range] HaCaT, CV [10]: 0.044 (0.042 to 0.047) μg/ml | IC50 (μg/ml) [Mean, Range] WM164, CV [11]: 0.0265 µg/mL | IC50 (μg/ml) [Mean, Range] FB, MTT [12]: 0.1034 (0.08 to 0.16) μg/ml | IC50 (μg/ml) [Mean, Range] FB, CV [13]: 0.094 (0.08 to 0.13) μg/ml
